The source of these data is patent US7902195B2, “Pyridine [3,4-b] pyrazinones” (Pharmacia & Upjohn Company LLC, priority 2006, dated 2011).

Each structure is given as a SMILES string.

The test concerns the target T1, PDE5 enzyme isolated from human platelets (Homo sapiens, UniProt O76074).
T1 construct: The PDE5 enzyme for use in the assay can be obtained from human platelets; from tissue; host or cells: human platelets
The test can be described thus: Alternative human platelet PDE5 enzyme inhibition scintillation proximity assay (Method 2). It counts as biochemical. The conditions noted are these: cGMP substrate 50 nM, 60 minutes at room temperature. The text has this:
The IC50 of a test compound can be measured using an in vitro assay using PDE5 enzyme isolated from human platelets. The IC50 is the concentration of test compound required to inhibit the hydrolysis of cGMP to GMP by the PDE5 enzyme by 50% relative to the activity of uninhibited controls. The PDE5 enzyme for use in the assay can be obtained from human platelets by appropriate modification of the method of Thompson, W J et al.; Biochemistry 18(23), 5228-5237, 1979, as described by Ballard S A et al.; J. Urology 159(6), 2164-2171, 1998. The PDE5 enzyme so obtained can be used to catalyze the hydrolysis of [^3H]cGMP (Amersham Biosciences) to 5′ nucleotide [^3H]GMP. The [^3H]GMP binds to yttrium silicate SPA beads (Amersham Biosciences) and is detected by scintillation counting. More specifically, the effect of a test compound at different concentrations can be evaluated in the assay by contacting the compound with a fixed amount of PDE5 enzyme in the presence of substrate (cGMP […] in a 3:1 ratio unlabelled to [^3H]-labeled). Scintillation counting can be used as described above to determine relative PDE5 enzyme activity. The inhibition of PDE5 enzyme activity is then calculated relative to total PDE5 enzyme activity of uninhibited controls.
Method 2: Alternative Human Platelet PDE5 Enzyme Inhibition Scintillation Proximity Assay
PDE5 IC50 Assay: 96-Well Microtiter Plate Format
Buffer A: 20 mM Tris-HCl, 5 mM MgCl2, pH 7.4
Buffer B: 2 mg/ml BSA in Buffer A (enzyme buffer)
cGMP substrate: Final concentration of 50 nM in assay
The amount of ^3H-labeled substrate added depends upon the specific activity of [^3H]cGMP, and it is diluted in Buffer A.
PDE enzyme: Prepared in Buffer B. The dilution factor is determined by enzyme activity.
SPA beads: 4 mg/ml suspension prepared in dH2O.
Stocks of standard and test compound are prepared at 2 mM in 100% DMSO. The test compound is serially diluted in a dilution plate using an 8-point ⅕ log dilution format such that the starting concentration in the assay is 2 μM for an initial IC50 screen. 27 μl of Buffer A are added to the wells of the assay plates. From the dilution plate, 3 μl of diluted compound is delivered in duplicate or 3 μl of 100% DMSO (for positive and negative controls) are added. 30 μl of enzyme are added. For the negative control wells, Buffer B is substituted in place of the enzyme. 30 μl of labeled substrate are added to all wells.
After incubating for 60 minutes at room temperature, the reaction is stopped with the addition of 30 μl of the yttrium silicate beads. These beads are dense and require constant agitation while being added to the plate. The plates are sealed and shaken on a plate shaker for fifteen minutes to allow the beads to bind the GMP product.
After allowing the beads to settle for 30 minutes, plates are read on a NXT TopCount scintillation counter and the data are analyzed as follows. Percent inhibition values are calculated using the means of the 0% and 100% controls on each plate. The estimates of the 4-parameters of the logistic, sigmoid dose-response model are then calculated using the well-level percent inhibition value for the compound. The formula for the four-parameter logistic model may be expressed as Y=((a−d)/(1+(X/c)^b))+d, where Y is the response, X is the concentration, a is the lower asymptote (minimum response), d is the upper asymptote (maximum response), c is the model IC50 (in the same units as X), and b is the slope (as described in De Lean, A., P. J. Munson, and D. Rodbard (“Simultaneous analysis of families of sigmoidal curves: application to bioassay, radioligand assay, and physiological dose-response curves.” Am. J. Physiol. 235(2): E97-E102, 1978). These estimates are used to calculate the concentration that corresponds to 50% inhibition.
Compounds were tested in accordance with Method 2 above yielding the IC50 values described in Table C.
Regarding `CCCOCCn1c(=O)c(N2CCN(CCO)CC2)nc2cnc(-c3ccc(F)c(C)c3)cc21` [Example 25, 7-(4-fluoro-3-methylphenyl)-3-(4-(2-hydroxyethyl)piperazin-1-yl)-1-(2-propoxyethyl)pyrido[3,4-b]pyrazin-2(1H)-one], the IC50 is 1.87 nM. `CCCOCCn1c(=O)c(N2CCN(CCO)CC2)nc2cnc(-c3cccc(F)c3F)cc21` [Example 26, 7-(2,3-difluorophenyl)-3-(4-(2-hydroxyethyl)piperazin-1-yl)-1-(2-propoxyethyl)pyrido[3,4-b]pyrazin-2(1H)-one] registered an IC50 of 47.1 nM. This IC50 lies about 25-fold higher than the previous one.

`CCCOCCn1c(=O)c(N2CCN(CCO)CC2)nc2cnc(-c3ccc(C)cc3)cc21` [Example 27, 3-(4-(2-hydroxyethyl)piperazin-1-yl)-1-(2-propoxyethyl)-7-p-tolylpyrido[3,4-b]pyrazin-2(1H)-one]: the IC50 worked out at 9.31 nM.

For the compound `CCCOCCn1c(=O)c(N2CCN(CCO)CC2)nc2cnc(-c3ccc(C(C)=O)s3)cc21` [Example 28, 7-(5-acetylthiophen-2-yl)-3-(4-(2-hydroxyethyl)piperazin-1-yl)-1-(2-propoxyethyl)pyrido[3,4-b]pyrazin-2(1H)-one], the IC50 turned out to be 43.1 nM. This IC50 lies about 4.6-fold higher than the previous one.

For `CCCOCCn1c(=O)c(N2CCN(CCO)CC2)nc2cnc(-c3cccc(OC)c3)cc21` [Example 29, 3-(4-(2-hydroxyethyl)piperazin-1-yl)-7-(3-methoxyphenyl)-1-(2-propoxyethyl)pyrido[3,4-b]pyrazin-2(1H)-one], the concentration for half-maximal inhibition (IC50) worked out at 3.07 nM. In the case of `CCCOCCn1c(=O)c(N2CCN(CCO)CC2)nc2cnc(-c3cccc(CO)c3)cc21` [Example 30, 3-(4-(2-hydroxyethyl)piperazin-1-yl)-7-(3-(hydroxymethyl)phenyl)-1-(2-propoxyethyl)pyrido[3,4-b]pyrazin-2(1H)-one] it was 311 nM; in that of `CCCOCCn1c(=O)c(N2CCN(CCO)CC2)nc2cnc(-c3cccnc3)cc21` [Example 31, 3-(4-(2-hydroxyethyl)piperazin-1-yl)-1-(2-propoxyethyl)-7-(pyridin-3-yl)pyrido[3,4-b]pyrazin-2(1H)-one], 45.8 nM. In the case of `CCCOCCn1c(=O)c(N2CCN(CCO)CC2)nc2cnc(-c3cccc(OCC)c3)cc21` [Example 32, 7-(3-ethoxyphenyl)-3-(4-(2-hydroxyethyl)piperazin-1-yl)-1-(2-propoxyethyl)pyrido[3,4-b]pyrazin-2(1H)-one] it was 158 nM; in that of `CCCOCCn1c(=O)c(N2CCN(CCO)CC2)nc2cnc(-c3ccc(OC)c(F)c3)cc21` [Example 33, 7-(3-fluoro-4-methoxyphenyl)-3-(4-(2-hydroxyethyl)piperazin-1-yl)-1-(2-propoxyethyl)pyrido[3,4-b]pyrazin-2(1H)-one], 13.6 nM; in that of `CCCOCCn1c(=O)c(N2CCN(CCO)CC2)nc2cnc(-c3cc(Cl)ccc3F)cc21` [Example 34, 7-(5-chloro-2-fluorophenyl)-3-(4-(2-hydroxyethyl)piperazin-1-yl)-1-(2-propoxyethyl)pyrido[3,4-b]pyrazin-2(1H)-one], 12.6 nM. In turn, `CCCOCCn1c(=O)c(N2CCN(CCO)CC2)nc2cnc(-c3ccc(OC)c(C)c3)cc21` [Example 35, 3-(4-(2-hydroxyethyl)piperazin-1-yl)-7-(4-methoxy-3-methylphenyl)-1-(2-propoxyethyl)pyrido[3,4-b]pyrazin-2(1H)-one] came in with an IC50 of 1.69 nM. The compound `CCCOCCn1c(=O)c(N2CCN(CCO)CC2)nc2cnc(-c3cccc(C)c3)cc21` [Example 36, 3-(4-(2-hydroxyethyl)piperazin-1-yl)-1-(2-propoxyethyl)-7-m-tolylpyrido[3,4-b]pyrazin-2(1H)-one] registered an IC50 of 423 nM. Turning to `CCCOCCn1c(=O)c(N2CCN(CCO)CC2)nc2cnc(-c3ccccc3O)cc21` [Example 37, 3-(4-(2-hydroxyethyl)piperazin-1-yl)-7-(2-hydroxyphenyl)-1-(2-propoxyethyl)pyrido[3,4-b]pyrazin-2(1H)-one], the IC50 is 18.1 nM. Turning to `CCCOCCn1c(=O)c(N2CCN(CCO)CC2)nc2cnc(-c3ccccc3F)cc21` [Example 38, 7-(2-fluorophenyl)-3-(4-(2-hydroxyethyl)piperazin-1-yl)-1-(2-propoxyethyl)pyrido[3,4-b]pyrazin-2(1H)-one], the IC50 was found to be 42.2 nM. This IC50 lies about 2.3-fold higher than the previous one. In the case of `CCCOCCn1c(=O)c(N2CCN(CC)CC2)nc2cnc(-c3ccc(OC)nc3)cc21` [Example 39, 3-(4-ethylpiperazin-1-yl)-7-(6-methoxypyridin-3-yl)-1-(2-propoxyethyl)pyrido[3,4-b]pyrazin-2(1H)-one] it was 0.217 nM.

As to `CCCOCCn1c(=O)c(N2CCCC(C(N)=O)C2)nc2cnc(-c3ccc(OC)nc3)cc21` (stereo not drawn) [Example 40, 1-(1,2-dihydro-7-(6-methoxypyridin-3-yl)-2-oxo-1-(2-propoxyethyl)pyrido[3,4-b]pyrazin-3-yl)piperidine-3-carboxamide], inhibition was half-maximal at 0.296 nM (IC50). With `CCCOCCn1c(=O)c(N2CCC(C(N)=O)CC2)nc2cnc(-c3ccc(OC)nc3)cc21` [Example 41, 1-(1,2-dihydro-7-(6-methoxypyridin-3-yl)-2-oxo-1-(2-propoxyethyl)pyrido[3,4-b]pyrazin-3-yl)piperidine-4-carboxamide] the figure was 0.249 nM.

For `CCCOCCn1c(=O)c(N2CCC(O)C2)nc2cnc(-c3ccc(OC)nc3)cc21` (stereo not drawn) [Example 42, 3-(3-hydroxypyrrolidin-1-yl)-7-(6-methoxypyridin-3-yl)-1-(2-Propoxyethyl)pyrido[3,4-b]pyrazin-2(1H)-one], the IC50 was 0.421 nM. Compound `CCCOCCn1c(=O)c(N2CCN(CC(C)(C)O)CC2)nc2cnc(-c3ccc(OC)nc3)cc21` [Example 43, 3-(4-(2-hydroxy-2-methylpropyl)piperazin-1-yl)-7-(6-methoxypyridin-3-yl)-1-(2-propoxyethyl)pyrido[3,4-b]pyrazin-2(1H)-one] displayed an IC50 of 0.208 nM. On to `CCCOCCn1c(=O)c(N2CCN([C@@H](C)[C@@H](C)O)CC2)nc2cnc(-c3ccc(OC)nc3)cc21` [Example 44, 3-(4-((2S,3R)-3-hydroxybutan-2-yl)piperazin-1-yl)-7-(6-methoxypyridin-3-yl)-1-(2-propoxyethyl)pyrido[3,4-b]pyrazin-2(1H)-one], for which the IC50 was found to be 0.33 nM. Compound `CCCOCCn1c(=O)c(N2CCN([C@H](C)[C@@H](C)O)CC2)nc2cnc(-c3ccc(OC)nc3)cc21` [Example 45, 3-(4-((2R,3R)-3-hydroxybutan-2-yl)piperazin-1-yl)-7-(6-methoxypyridin-3-yl)-1-(2-propoxyethyl)pyrido[3,4-b]pyrazin-2(1H)-one] gave an IC50 of 0.295 nM. This IC50 and that of the compound before are within 1.5-fold of each other. The compound `CCCOCCn1c(=O)c(N2CCN(C[C@H](C)O)CC2)nc2cnc(-c3ccc(OC)nc3)cc21` [Example 46, 3-(4-((S)-2-hydroxypropyl)piperazin-1-yl)-7-(6-methoxypyridin-3-yl)-1-(2-propoxyethyl)pyrido[3,4-b]pyrazin-2(1H)-one] displayed an IC50 of 0.306 nM. This IC50 and that of the compound before are within 1.5-fold of each other. In the case of `CCCOCCn1c(=O)c(N2CCN(C[C@@H](C)O)CC2)nc2cnc(-c3ccc(OC)nc3)cc21` [Example 47, 3-(4-((R)-2-hydroxypropyl)piperazin-1-yl)-7-(6-methoxypyridin-3-yl)-1-(2-propoxyethyl)pyrido[3,4-b]pyrazin-2(1H)-one], the IC50 turned out to be 0.226 nM. The compound `CCCOCCn1c(=O)c(N2CCCN(CCCO)CC2)nc2cnc(-c3ccc(OC)nc3)cc21` [Example 48, 3-(4-(3-hydroxypropyl)-1,4-diazepan-1-yl)-7-(6-methoxypyridin-3-yl)-1-(2-propoxyethyl)pyrido[3,4-b]pyrazin-2(1H)-one] had an IC50 of 1.07 nM. Against the preceding compound, the IC50 is about 4.7-fold higher.

In general, IC50 refers to the midpoint of a concentration-inhibition curve. Read a high IC50 as a need for much substance.
